Measured values published in PMC7162861, “Synthesis, cytotoxicity, pharmacokinetic profile, binding with DNA and BSA of new imidazo[1,2-a]pyrazine-benzo[d]imidazol-5-yl hybrids” (Scientific Reports, 2020).

Tests used:
SNB-19 = assay: NCI cytotoxicity screen, CNS Cancer panel; type: cell-based; settings: SNB-19; five dose 0.01–100 µM
Procedure: (§1) Cytotoxicity was performed at National Cancer Institute (NCI), Bethesda, USA as per their protocols.

SNB-75 = assay: NCI cytotoxicity screen, CNS Cancer panel; type: cell-based
Procedure: as §1

U251 = assay: NCI cytotoxicity screen, CNS Cancer panel; type: cell-based
Procedure: as §1

LOX IMVI = assay: NCI cytotoxicity screen, Melanoma panel; type: cell-based, human
Procedure: as §1

M14 = assay: NCI cytotoxicity screen, Melanoma panel; type: cell-based, human
Procedure: as §1

UACC-62 = assay: NCI cytotoxicity screen, Melanoma panel; type: cell-based, human; settings: five dose 0.01–100 µM
Procedure: as §1

MALME-3M = assay: NCI cytotoxicity screen, Melanoma panel; type: cell-based
Procedure: as §1

MDA-MB-435 = assay: NCI cytotoxicity screen, Melanoma panel; type: cell-based; settings: MDA-MB-435
Procedure: as §1

SK-MEL-28 = assay: NCI cytotoxicity screen, Melanoma panel; type: cell-based
Procedure: as §1

SK-MEL-2 = assay: NCI cytotoxicity screen, Melanoma panel; type: cell-based
Procedure: as §1

SK-MEL-5 = assay: NCI cytotoxicity screen, Melanoma panel; type: cell-based
Procedure: as §1

UACC-257 = assay: NCI cytotoxicity screen, Melanoma panel; type: cell-based
Procedure: as §1

786-0 = assay: NCI cytotoxicity screen, Renal Cancer panel; type: cell-based, human; settings: five dose 0.01–100 µM
Procedure: as §1

TK-10 = assay: NCI cytotoxicity screen, Renal Cancer panel; type: cell-based, human; settings: five dose 0.01–100 µM
Procedure: as §1

A498 = assay: NCI cytotoxicity screen, Renal Cancer panel; type: cell-based
Procedure: as §1

ACHN = assay: NCI cytotoxicity screen, Renal Cancer panel; type: cell-based
Procedure: as §1

CAKI-1 = assay: NCI cytotoxicity screen, Renal Cancer panel; type: cell-based
Procedure: as §1

RXF 393 = assay: NCI cytotoxicity screen, Renal Cancer panel; type: cell-based
Procedure: as §1

SN12C = assay: NCI cytotoxicity screen, Renal Cancer panel; type: cell-based
Procedure: as §1

UO-31 = assay: NCI cytotoxicity screen, Renal Cancer panel; type: cell-based
Procedure: as §1

DU-145 = assay: NCI cytotoxicity screen, Prostate Cancer panel; type: cell-based, human
Procedure: as §1

PC-3 = assay: NCI cytotoxicity screen, Prostate Cancer panel; type: cell-based, human; settings: five dose 0.01–100 µM
Procedure: as §1

[1] = Experimental log P, shake-flask method; type: physicochemical; settings: n-octanol/phosphate buffer pH 7.4, read-out: Exp. Log P
In short: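 Shake-flask partitioning between n-octanol and phosphate buffer pH 7.4, shaken 50 min, then centrifuged 35 min at 2500 rpm. Buffer-phase absorbance at each compound's λmax measured before and after partitioning. P calculated from absorbance drop and phase volume ratio.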

[2] = Homo sapiens, five dose 0.01–100 µM
[3] = Homo sapiens, five dose 0.01–100 µM, read-out: LC50 (the source's name)

In the case of `c1cn2cc(-c3ccc4ncn(C5CCCCC5)c4c3)nc(-c3ccc4c(c3)ncn4C3CCCCC3)c2n1` [Compound 31, 8-(1-cyclohexyl-1H-benzo[d]imidazol-5-yl)-6-(1-cyclohexyl-1H-benzo[d]imidazol-6-yl)imidazo[1,2-a]pyrazine], the TGI (SNB-19) was 4950 nM, the GI50 (SNB-75; Homo sapiens) was 1390 nM and the LC50 (SNB-75; [2]) was 6770 nM. For the same molecule, the TGI (SNB-75; five dose 0.01–100 µM) was 3070 nM, the GI50 (U251; Homo sapiens, U-251) was 1910 nM and the CC50 (U251; Homo sapiens, U-251, U251, five dose 0.01–100 µM, read-out: LC50 (the source's name)) was 6980 nM. It also gave a TGI (U251; U251, five dose 0.01–100 µM) of 3650 nM, a GI50 (LOX IMVI; Homo sapiens) of 1680 nM and a TGI (LOX IMVI; five dose 0.01–100 µM) of 3220 nM. For the same molecule, the GI50 (M14; Homo sapiens) was 1770 nM, the TGI (M14; five dose 0.01–100 µM) was 3650 nM and the GI50 (UACC-62; Homo sapiens) was 1700 nM. The TGI (UACC-62) was 3360 nM, the GI50 (MALME-3M; Homo sapiens, Malme-3M) was 2110 nM and the CC50 (MALME-3M; Homo sapiens, MALME-3M, five dose 0.01–100 µM, read-out: LC50 (the source's name)) was 6680 nM. The TGI (MALME-3M; MALME-3M, five dose 0.01–100 µM) was 3750 nM, the GI50 (MDA-MB-435; Homo sapiens) was 1770 nM and the CC50 (MDA-MB-435; [3]) was 7110 nM. The TGI (MDA-MB-435; five dose 0.01–100 µM) was 3550 nM, the GI50 (SK-MEL-28; Homo sapiens) was 1810 nM and the CC50 (SK-MEL-28; [3]) was 6430 nM. For the same molecule, the TGI (SK-MEL-28; five dose 0.01–100 µM) was 3410 nM, the GI50 (SK-MEL-2; Homo sapiens) was 1740 nM and the CC50 (SK-MEL-2; [3]) was 6450 nM. It also gave a TGI (SK-MEL-2; five dose 0.01–100 µM) of 3350 nM, a GI50 (SK-MEL-5; Homo sapiens) of 1490 nM and a CC50 (SK-MEL-5; [3]) of 5390 nM. For the same molecule, the TGI (SK-MEL-5; five dose 0.01–100 µM) was 2830 nM, the GI50 (UACC-257; Homo sapiens) was 2100 nM and the LC50 (UACC-257; [2]) was 6240 nM. It also gave a TGI (UACC-257; five dose 0.01–100 µM) of 3620 nM, a GI50 (786-0; Homo sapiens) of 1730 nM and a TGI (786-0) of 3470 nM. The GI50 (TK-10; Homo sapiens) was 2020 nM, the TGI (TK-10) was 3650 nM and the GI50 (A498; Homo sapiens) was 1770 nM. It also gave a CC50 (A498; [3]) of 5850 nM, a TGI (A498; five dose 0.01–100 µM) of 3220 nM and a GI50 (ACHN; Homo sapiens) of 1680 nM. The CC50 (ACHN; [3]) was 5610 nM, the TGI (ACHN; five dose 0.01–100 µM) was 3070 nM and the TGI (CAKI-1; CAKI-1, five dose 0.01–100 µM) was 2950 nM. For the same molecule, the GI50 (CAKI-1; Homo sapiens, CAKI-1) was 1460 nM, the inhibition at 10 µM (CAKI-1; Homo sapiens, CAKI-1, read-out: Percent growth inhibition) was 82.8% and the CC50 (CAKI-1; Homo sapiens, CAKI-1, five dose 0.01–100 µM, read-out: LC50 (the source's name)) was 5970 nM. It also gave a GI50 (RXF 393; Homo sapiens) of 1510 nM, a CC50 (RXF 393; [3]) of 5940 nM and a TGI (RXF 393; five dose 0.01–100 µM) of 2990 nM. For the same molecule, the GI50 (SN12C; Homo sapiens) was 2050 nM, the CC50 (SN12C; [3]) was greater than 1000 nM and the TGI (SN12C; five dose 0.01–100 µM) was 4530 nM. For the same molecule, the GI50 (UO-31; Homo sapiens) was 1490 nM, the CC50 (UO-31; [3]) was 5460 nM and the TGI (UO-31; five dose 0.01–100 µM) was 2850 nM. For the same molecule, the GI50 (DU-145; Homo sapiens) was 1770 nM, the TGI (DU-145; five dose 0.01–100 µM) was 3280 nM and the GI50 (PC-3; Homo sapiens) was 1700 nM. It also gave a TGI (PC-3) of 3930 nM and a logP [1] of 1.77.
